Measured values taken from ChEMBL document CHEMBL1156605, “Discovery of dihydroquinoxalinone acetamides containing bicyclic amines as potent Bradykinin B1 receptor antagonists” (Bioorg Med Chem Lett, 2008).

Experiments:
B1 bradykinin receptor [1] = target: T1, B1 bradykinin receptor (Homo sapiens, UniProt P46663); experiment: Antagonist activity at human bradykinin B1 receptor expressed in CHO-D-/aequorin cells; type: functional, cell-based
T1 sequence (P46663 whole entry): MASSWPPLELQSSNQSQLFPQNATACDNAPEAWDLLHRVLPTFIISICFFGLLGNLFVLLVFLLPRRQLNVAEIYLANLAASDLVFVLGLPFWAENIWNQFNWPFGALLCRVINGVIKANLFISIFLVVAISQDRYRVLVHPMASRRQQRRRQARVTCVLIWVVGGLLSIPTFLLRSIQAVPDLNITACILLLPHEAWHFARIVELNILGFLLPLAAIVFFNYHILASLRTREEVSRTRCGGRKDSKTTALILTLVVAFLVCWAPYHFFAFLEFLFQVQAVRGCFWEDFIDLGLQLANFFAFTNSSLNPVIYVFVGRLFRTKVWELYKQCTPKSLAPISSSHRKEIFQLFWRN

[2] = Metabolic stability in human liver microsomes; type: ADME, Microsome; conditions: read-out: Stability
B1 bradykinin receptor [3] = target: T1, B1 bradykinin receptor; experiment: Displacement of [3H]DAK from human bradykinin B1 receptor expressed in CHO-D-/aequorin cells by rapid filtration technique; type: cell-based

| SMILES | IC50 (B1 bradykinin receptor [1]) [nM] | microsomal CLint [2] [µL/min/mg] | Ki (B1 bradykinin receptor [3]) [nM] |
| --- | --- | --- | --- |
| O=C(C[C@@H]1C(=O)Nc2ccccc2N1S(=O)(=O)c1ccc(Cl)c(Cl)c1)NCCc1ccc(C2=NCCN2)cc1 | 0.18 | – | – |
| CC(C)CNCc1ccc2c(c1)OCC[C@H]2NC(=O)C[C@@H]1C(=O)Nc2ccccc2N1S(=O)(=O)c1ccc(Cl)c(Cl)c1 | – | 264 | – |
| O=C(C[C@@H]1C(=O)Nc2ccccc2N1S(=O)(=O)c1ccc(Cl)c(Cl)c1)N[C@@H]1CCOc2cc(CN3CCCCC3)ccc21 | – | 389 | – |
| O=C(C[C@@H]1C(=O)Nc2ccccc2N1S(=O)(=O)c1ccc(Cl)c(Cl)c1)N[C@@H]1CCOc2cc(CO)ccc21 | – | 264 | – |
| O=Cc1ccc2c(c1)OCC[C@H]2NC(=O)C[C@@H]1C(=O)Nc2ccccc2N1S(=O)(=O)c1ccc(Cl)c(Cl)c1 | – | 407 | – |
| COc1ccccc1NC(=O)CC1C(=O)Nc2ccccc2N1S(=O)(=O)c1c(C)cc(C)cc1C (stereo unspecified) | > 40000 | – | 500 |
| O=C(C[C@@H]1C(=O)Nc2ccccc2N1S(=O)(=O)c1ccccc1)N[C@@H]1CCOc2cc(CN3CCCCC3)ccc21 | – | 76 | – |
| CNCc1ccc2c(c1)OCC[C@H]2NC(=O)C[C@@H]1C(=O)Nc2ccccc2N1S(=O)(=O)c1ccc(Cl)c(Cl)c1 | – | 107 | – |
| CC(C)(C)NCc1ccc2c(c1)OCC[C@H]2NC(=O)C[C@@H]1C(=O)Nc2ccccc2N1S(=O)(=O)c1ccc(Cl)c(Cl)c1 | 1.7 | 174 | 1.1 |
| CC(C)(C)NCc1ccc2c(c1)OCC[C@H]2NC(=O)C[C@@H]1C(=O)Nc2ccccc2N1S(=O)(=O)c1ccccc1 | 0.37 | 26 | 1.8 |

Continued, values first:

| IC50 (B1 bradykinin receptor [1]) [nM] | microsomal CLint [2] [µL/min/mg] | Ki (B1 bradykinin receptor [3]) [nM] | SMILES |
| --- | --- | --- | --- |
| – | 128 | – | Cc1ccc(S(=O)(=O)N2c3ccccc3NC(=O)[C@H]2CC(=O)N[C@@H]2CCOc3cc(CN4CCCCC4)ccc32)cc1 |
| 0.86 | 156 | 0.7 | CC(C)NCc1ccc2c(c1)OCC[C@H]2NC(=O)C[C@@H]1C(=O)Nc2ccccc2N1S(=O)(=O)c1ccc(Cl)c(Cl)c1 |
| – | 127 | – | NCc1ccc2c(c1)OCC[C@H]2NC(=O)C[C@@H]1C(=O)Nc2ccccc2N1S(=O)(=O)c1ccc(Cl)c(Cl)c1 |
| – | 208 | – | CN(C)Cc1ccc2c(c1)OCC[C@H]2NC(=O)C[C@@H]1C(=O)Nc2ccccc2N1S(=O)(=O)c1ccc(Cl)c(Cl)c1 |
